# Target: NACHT, LRR and PYD domains-containing protein 3 (Homo sapiens, UniProt Q96P20)
# Experiment: Evaluation of NLRP3 Inflammasome Inhibitory Activity Assay
# Method: The NLRP3 inflammasome inhibitory activity of test compounds were evaluated CM the basis of the inhibitory activity of the IL-1β, production in THP1-Null cells (Product Number: thp-null, InvivoGen). […] A solution containing a test compound (20 μL/well) was added to test compound-setting wells. […] The supernatant of the culture was cryonically stored (set at −20° C.) until measurement of IL-1β.
# Sequence of NACHT, LRR and PYD domains-containing protein 3 (Q96P20 whole entry, the tested form may be a part): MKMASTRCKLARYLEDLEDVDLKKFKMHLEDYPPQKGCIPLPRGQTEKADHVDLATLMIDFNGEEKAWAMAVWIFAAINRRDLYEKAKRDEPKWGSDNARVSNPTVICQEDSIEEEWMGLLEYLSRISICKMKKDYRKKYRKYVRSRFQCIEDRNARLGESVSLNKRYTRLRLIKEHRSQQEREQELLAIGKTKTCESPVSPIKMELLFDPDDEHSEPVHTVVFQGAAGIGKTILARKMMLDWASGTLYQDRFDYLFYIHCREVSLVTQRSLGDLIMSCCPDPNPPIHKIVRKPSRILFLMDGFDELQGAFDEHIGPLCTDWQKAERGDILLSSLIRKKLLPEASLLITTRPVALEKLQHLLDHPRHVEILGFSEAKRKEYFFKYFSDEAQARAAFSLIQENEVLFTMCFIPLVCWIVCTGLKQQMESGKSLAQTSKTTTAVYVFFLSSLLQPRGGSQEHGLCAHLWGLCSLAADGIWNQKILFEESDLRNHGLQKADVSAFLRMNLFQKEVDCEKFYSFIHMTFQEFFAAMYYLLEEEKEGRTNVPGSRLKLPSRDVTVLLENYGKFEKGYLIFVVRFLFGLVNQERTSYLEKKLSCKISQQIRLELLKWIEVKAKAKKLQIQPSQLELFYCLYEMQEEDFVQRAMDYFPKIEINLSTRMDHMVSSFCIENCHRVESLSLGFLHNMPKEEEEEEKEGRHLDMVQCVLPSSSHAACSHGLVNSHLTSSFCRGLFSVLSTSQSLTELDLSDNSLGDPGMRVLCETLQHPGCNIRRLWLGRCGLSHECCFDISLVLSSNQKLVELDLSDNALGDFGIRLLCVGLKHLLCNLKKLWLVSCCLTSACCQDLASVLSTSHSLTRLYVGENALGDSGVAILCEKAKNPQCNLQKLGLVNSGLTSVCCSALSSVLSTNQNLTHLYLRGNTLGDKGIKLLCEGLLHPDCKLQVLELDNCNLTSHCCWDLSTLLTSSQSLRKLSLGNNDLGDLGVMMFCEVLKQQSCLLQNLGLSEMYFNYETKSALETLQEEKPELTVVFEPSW
row,Compound,IC50
1,"CCOC[C@@H]1OCCN(S(=O)(=O)NC(=O)c2coc(Nc3cc(C)c(F)cc3C)n2)C[C@H]1OC [US20230399319, Example 3-007]",0.82 µM
2,"CC1(C)CCN(S(=O)(=O)NC(=O)c2coc(Nc3c4c(c(F)c5c3CCC5)CCC4)n2)C1 [US20230399319, Example 2-009]",0.38 µM
3,"Cc1ccc(C(F)(F)F)cc1Nc1nc(C(=O)NS(=O)(=O)N(C)CC(=O)N(C)C)co1 [US20230399319, Example 2-110]",0.34 µM
4,"Cc1ccc(C(F)(F)F)cc1Nc1nc(C(=O)NS(=O)(=O)N2[C@H](C)CCC[C@@H]2C)co1 [US20230399319, Example 2-053]",0.089 µM
5,"Cc1ccc(C(F)(F)F)cc1Nc1nc(C(=O)NS(=O)(=O)N(C)CCn2cccn2)co1 [US20230399319, Example 2-279]",0.074 µM
6,"Cc1cn(C2CCC2)nc1Nc1nc(C(=O)NS(=O)(=O)N2CCCOCC2)co1 [US20230399319, Example 2-188]",0.79 µM
7,"CC(C)c1ccc(C(C)C)c(Nc2nc(C(=O)NS(=O)(=O)N3CCCOCC3)co2)c1 [US20230399319, Example 2-071]",0.043 µM
8,"Cc1ccc(C(F)(F)F)cc1Nc1nc(C(=O)NS(=O)(=O)N2CCC[C@@H]2C(=O)N(C)C)co1 [US20230399319, Example 2-080]",0.93 µM
9,"Cc1ccc(C(F)(F)F)cc1Nc1nc(C(=O)NS(=O)(=O)N2CCCC(N(C)C)CC2)co1 (stereo unspecified) [US20230399319, Example 2-173]",0.12 µM
10,"CCCCC1(C#N)CCCN(S(=O)(=O)NC(=O)c2coc(Nc3cc(C(F)(F)F)ccc3C)n2)CC1 (stereo unspecified) [US20230399319, Example 2-249]",0.03 µM
11,"CCCS(=O)(=O)C1CCCN(S(=O)(=O)NC(=O)c2coc(Nc3cc(C(F)(F)F)ccc3C(C)C)n2)CC1 (stereo unspecified) [US20230399319, Example 2-316]",0.022 µM
12,"Cc1ccc(C(F)(F)F)cc1Nc1nc(C(=O)NS(=O)(=O)N2CCCC(CC#N)CC2)co1 (stereo unspecified) [US20230399319, Example 2-150]",0.025 µM
13,"CCCCS(=O)(=O)N1CCCN(S(=O)(=O)NC(=O)c2coc(Nc3cn(C(C)C)nc3C(C)C)n2)CC1 [US20230399319, Example 2-161]",0.07 µM
14,"Cc1cn(C(C)C)nc1Nc1nc(C(=O)NS(=O)(=O)N2CCCC(C#N)CC2)co1 (stereo unspecified) [US20230399319, Example 2-192]",0.16 µM
15,"CC(C)c1ccc(C(F)(F)F)cc1Nc1nc(C(=O)NS(=O)(=O)N2CCCN(C)CC2)co1 [US20230399319, Example 2-123]",0.21 µM
16,"Cc1ccc(C(F)(F)F)cc1Nc1nc(C(=O)NS(=O)(=O)N2CCC(C#N)C2)co1 (stereo unspecified) [US20230399319, Example 2-221]",0.21 µM
17,"COC[C@@H]1CCN(S(=O)(=O)NC(=O)c2coc(Nc3cc(C)c(F)cc3C)n2)CCO1 [US20230399319, Example 2-347]",0.055 µM
18,"Cc1ccc(C(F)(F)F)cc1Nc1nc(C(=O)NS(=O)(=O)N2CCCC(c3ccccc3)C2)co1 (stereo unspecified) [US20230399319, Example 2-284]",1.4 µM

row,Compound,IC50
1,"Cc1ccc(C(F)(F)F)cc1Nc1nc(C(=O)NS(=O)(=O)N2CCC(C)(C)C2)co1 [US20230399319, Example 2-020]",0.1 µM
2,"Cc1cc(Cl)c(C(C)C)cc1Nc1nc(C(=O)NS(=O)(=O)N2CCOCC2)co1 [US20230399319, Example 2-028]",< 0.03 µM
3,"CC(=O)NCCN(C)S(=O)(=O)NC(=O)c1coc(Nc2cc(C(F)(F)F)ccc2C)n1 [US20230399319, Example 2-162]",0.3 µM
4,"Cc1noc(C2(C)CCN(S(=O)(=O)NC(=O)c3coc(Nc4cc(C(F)(F)F)ccc4C)n3)CC2)n1 [US20230399319, Example 2-285]",0.17 µM
5,"Cc1cc(F)c(C(C)C)cc1Nc1nc(C(=O)NS(=O)(=O)N2CCOC(CO)CC2)co1 (stereo unspecified) [US20230399319, Example 2-348]",0.028 µM
6,"COC[C@@H]1CCCN1S(=O)(=O)NC(=O)c1coc(Nc2cc(C(F)(F)F)ccc2C)n1 [US20230399319, Example 2-038]",< 0.03 µM
7,"Cc1ccc(C(F)(F)F)cc1Nc1nc(C(=O)NS(=O)(=O)N(C)CCC(=O)N(C)C)co1 [US20230399319, Example 2-338]",0.077 µM
8,"CCCC1CCCN(S(=O)(=O)NC(=O)c2coc(Nc3cc(C(F)(F)F)ccc3C)n2)CC1 (stereo unspecified) [US20230399319, Example 2-233]",0.48 µM
9,"CCCCS(=O)(=O)N1CCN(S(=O)(=O)NC(=O)c2coc(Nc3cc(C(F)(F)F)ccc3C)n2)CC1 [US20230399319, Example 2-247]",0.022 µM
10,"Cc1cc(F)c(C(C)C)cc1Nc1nc(C(=O)NS(=O)(=O)N2CCOCC(C)(O)C2)co1 (stereo unspecified) [US20230399319, Example 2-351]",0.022 µM
11,"COCCN(CCOC)S(=O)(=O)NC(=O)c1coc(Nc2cc(C(F)(F)F)ccc2C)n1 [US20230399319, Example 2-164]",0.14 µM
12,"Cc1ccc(C(C)(C)C)cc1Nc1nc(C(=O)NS(=O)(=O)N2CCCOCC2)co1 [US20230399319, Example 2-112]",0.065 µM
13,"Cc1ccc(C(C)CC#N)cc1Nc1nc(C(=O)NS(=O)(=O)N(C)C)co1 (stereo unspecified) [US20230399319, Example 2-096]",1.8 µM
14,"Cc1ccc(C(F)(F)F)cc1Nc1nc(C(=O)NS(=O)(=O)N2CCC(CS(C)(=O)=O)CC2)co1 [US20230399319, Example 2-022]",0.24 µM
15,"Cc1ccc(C(F)(F)F)cc1Nc1nc(C(=O)NS(=O)(=O)N(C)CCc2ccccn2)co1 [US20230399319, Example 2-287]",0.064 µM
16,"Cc1ccc(C(F)(F)F)cc1Nc1nc(C(=O)NS(=O)(=O)N2CCC(S(C)(=O)=O)CC2)co1 [US20230399319, Example 2-018]",0.05 µM
17,"Cc1ccc(C(F)(F)F)cc1Nc1nc(C(=O)NS(=O)(=O)N2CCCCC2C(F)F)co1 (stereo unspecified) [US20230399319, Example 2-187]",0.11 µM
18,"Cc1ccc(C(F)(F)F)cc1Nc1nc(C(=O)NS(=O)(=O)N2CCC(C(F)(F)F)CC2)co1 [US20230399319, Example 2-024]",0.031 µM

# — BindingDB's records for patent US20230399319 (Japan Tobacco, 2023)
